The values that follow are results of earlier work, collected in US20090226898A1, “Mitochondrial markers of ischemia” (Inverness Medical Switzerland GMBH, priority 2005, published 2009).

One data set addresses T1, FPR-like 2 (FPRL2) (Homo sapiens, UniProt P25089).
T1 sequence (P25089 1-353): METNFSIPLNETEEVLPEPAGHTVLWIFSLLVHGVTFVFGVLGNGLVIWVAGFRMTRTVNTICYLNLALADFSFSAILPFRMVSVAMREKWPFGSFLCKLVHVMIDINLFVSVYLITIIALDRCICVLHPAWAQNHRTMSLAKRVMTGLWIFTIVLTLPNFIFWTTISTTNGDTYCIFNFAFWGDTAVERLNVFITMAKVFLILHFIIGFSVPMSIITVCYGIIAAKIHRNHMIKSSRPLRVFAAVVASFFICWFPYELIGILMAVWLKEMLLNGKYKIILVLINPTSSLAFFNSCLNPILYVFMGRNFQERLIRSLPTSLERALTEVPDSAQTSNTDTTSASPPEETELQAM

The test system of data set [1] is human monocytes and formyl peptide receptor-like 1 (FPRL1)-transfected human embryonic kidney 293 cells. The following applies: human monocytes and FPRL1-transfected HEK 293 cells.
Data set [2] has the same test system. As to conditions: human monocytes and FPRL1-transfected HEK 293 cells. This is another data set of the same source.
The subject of a further data set is cardiac myocytes. As to conditions: immediately before ischemia.
Data set [3] addresses T2, FMLP receptor (68-kDa protein) (Homo sapiens, UniProt P21462).
T2 sequence (P21462 1-350): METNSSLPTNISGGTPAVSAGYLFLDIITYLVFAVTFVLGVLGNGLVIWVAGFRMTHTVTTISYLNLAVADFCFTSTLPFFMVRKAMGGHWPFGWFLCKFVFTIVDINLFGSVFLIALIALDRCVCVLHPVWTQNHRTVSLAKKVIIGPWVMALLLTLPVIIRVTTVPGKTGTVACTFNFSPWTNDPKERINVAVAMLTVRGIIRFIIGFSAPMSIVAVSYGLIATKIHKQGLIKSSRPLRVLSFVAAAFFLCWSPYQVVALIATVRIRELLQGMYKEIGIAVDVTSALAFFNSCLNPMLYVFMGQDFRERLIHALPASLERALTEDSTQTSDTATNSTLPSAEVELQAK
The following applies: binding to the 68-kDa protein.

As for formyl-Met-Leu-Phe [fMLP], the receptor activation entry on FPR-like 2 (FPRL2) was “only activated by high (micromolar) concentrations”. Consider “LL-37: neutrophil granule- and epithelial cell-derived cathelicidin, from hCAP18 (aa1-37) (LLGDFFRKSKEKIGKEFKRIVQRIKDFLRNLVPRTES; Antibacterial peptide LL-37; UniProt P49913 134-170, looked up)”, for which the chemotaxis result in data set [1] was “chemotactic”. The calcium mobilization entry in data set [2] is on record as “can induce calcium mobilization”. As to `C=C(C)[C@H]1Cc2c(ccc3c2O[C@@H]2COc4cc(OC)c(OC)cc4[C@@H]2C3=O)O1` [rotenone], the damage to mitochondria result in the data set on cardiac myocytes was “reduces damage to mitochondria”. Besides, the “production of ROS” value in the data set with cardiac myocytes (cardiac myocytes) is “decreases the production of ROS”.

As for RKAMGGHWPFGWFLCKF, in data set [3], the “inhibition of ligand binding” value is given as “strongest inhibitor of ligand binding”.
